In patent US4448781A, “N-Benzyl-imidazoles as selective inhibitors of the thromboxane synthetase enzyme” (Pfizer Inc., priority 1979, dated 1984):
Where a name gives a salt, the structure may show the parent alone.

How the values were obtained:
prostacyclin synthetase [1] = target: T1, prostacyclin synthetase (Sus scrofa, UniProt A0A5G2QT35); settings: pre-incubation of the enzyme; Prostaglandins, 1976, 12, 715; cited from earlier work
T1 construct: Pig aorta microsomes; from tissue; host or cells: pig aorta (microsomes)
T1 sequence (A0A5G2QT35 1-497): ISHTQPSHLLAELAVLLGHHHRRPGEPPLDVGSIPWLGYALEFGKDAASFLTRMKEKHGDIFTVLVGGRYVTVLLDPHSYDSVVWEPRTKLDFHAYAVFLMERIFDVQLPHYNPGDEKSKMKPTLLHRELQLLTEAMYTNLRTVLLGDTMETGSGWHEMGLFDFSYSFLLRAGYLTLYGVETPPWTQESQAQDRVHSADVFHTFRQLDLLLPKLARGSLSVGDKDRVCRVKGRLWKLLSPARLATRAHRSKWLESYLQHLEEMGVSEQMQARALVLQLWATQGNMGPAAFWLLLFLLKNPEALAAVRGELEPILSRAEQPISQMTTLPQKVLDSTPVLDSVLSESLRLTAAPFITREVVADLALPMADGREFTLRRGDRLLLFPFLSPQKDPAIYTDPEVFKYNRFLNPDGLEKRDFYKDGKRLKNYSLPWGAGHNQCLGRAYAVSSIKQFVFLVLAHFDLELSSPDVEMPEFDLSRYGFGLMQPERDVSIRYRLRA

[2] = tested on: human blood platelet aggregation; settings: human blood platelets; cited from earlier work
[3] = tested on: arachidonic acid induced death in rabbits; settings: rabbit, intravenous injection of arachidonic acid; cited from earlier work
cyclo-oxygenase enzyme = settings: cited from earlier work
[4] = tested on: prostacyclin and thromboxane A2 levels; settings: cited from earlier work
thromboxane synthetase = target: T2, thromboxane synthetase (Homo sapiens, UniProt P24557); test: Thromboxane A2 (TxA2) synthetase inhibition (indomethacin pre-treated human platelet microsomes, rabbit aorta superfusion bioassay); type: biochemical; settings: 5 min pre-incubation, isometric tension of rabbit aorta, read-out: Molar concentration causing 50% inhibition of (1) thromboxane synthetase
T2 construct: Indomethacin pre-treated human platelet microsomes; from tissue; host or cells: human blood platelets (microsomes)
T2 sequence (P24557 1-533): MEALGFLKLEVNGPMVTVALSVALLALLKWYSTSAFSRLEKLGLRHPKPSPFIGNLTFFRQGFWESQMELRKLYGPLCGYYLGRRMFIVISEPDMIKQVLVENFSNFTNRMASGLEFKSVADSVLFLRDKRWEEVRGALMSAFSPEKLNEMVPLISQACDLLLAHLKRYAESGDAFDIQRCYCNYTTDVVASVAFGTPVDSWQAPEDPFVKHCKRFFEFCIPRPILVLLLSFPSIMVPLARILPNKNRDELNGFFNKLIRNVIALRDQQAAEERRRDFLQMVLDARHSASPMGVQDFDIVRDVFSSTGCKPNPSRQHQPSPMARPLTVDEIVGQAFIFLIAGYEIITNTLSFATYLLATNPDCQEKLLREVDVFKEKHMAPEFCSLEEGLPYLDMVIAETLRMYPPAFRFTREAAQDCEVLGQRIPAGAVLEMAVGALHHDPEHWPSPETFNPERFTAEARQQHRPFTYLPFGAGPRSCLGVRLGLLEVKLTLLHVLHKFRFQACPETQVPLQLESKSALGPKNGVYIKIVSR
Method: 3. Thromboxane A2 (TxA2) Synthetase
Indomethacin pre-treated human platelet microsomes (Science 1976, 193, 163) are incubated (2 min.: 0° C.) with PGH2 (produced as in 1) and aliquots of the reaction mixture superfused over two rabbit aorta spirals which are separated by a delay coil (2 min.). The latter is required to allow the selective decay of the more unstable thromboxane A2 (Proc. Nat. Acad. Sci., 1975, 72, 2994) thereby enabling the separate measurement of increased isometric tension due to the TxA2 formed and the PGH2 remaining. The test compound is pre-incubated with the enzyme for 5 minutes, and its ability to inhibit the thromboxane synthetase enzyme is measured as its reduction of the TxA2 component of the isometric tension.
(§1) The results of these tests are shown in the following Table, which gives the molar concentration of each compound which caused a 50% change in the effect of the relevant enzyme on isometric tension, i.e. caused a 50% inhibition of the action of that enzyme.

cyclo-oxygenase = target: T3, cyclo-oxygenase (Ovis aries, UniProt P05979); test: Cyclo-oxygenase inhibition (ram seminal vesicle microsomes, rabbit aorta strip bioassay); type: biochemical; settings: 5 min pre-incubation, isometric tension of rabbit aorta, read-out: Molar concentration causing 50% inhibition of (2) cyclo-oxygenase
T3 construct: Ram seminal vesicle microsomes; from tissue; host or cells: ram seminal vesicle (microsomes)
T3 sequence (P05979 25-600): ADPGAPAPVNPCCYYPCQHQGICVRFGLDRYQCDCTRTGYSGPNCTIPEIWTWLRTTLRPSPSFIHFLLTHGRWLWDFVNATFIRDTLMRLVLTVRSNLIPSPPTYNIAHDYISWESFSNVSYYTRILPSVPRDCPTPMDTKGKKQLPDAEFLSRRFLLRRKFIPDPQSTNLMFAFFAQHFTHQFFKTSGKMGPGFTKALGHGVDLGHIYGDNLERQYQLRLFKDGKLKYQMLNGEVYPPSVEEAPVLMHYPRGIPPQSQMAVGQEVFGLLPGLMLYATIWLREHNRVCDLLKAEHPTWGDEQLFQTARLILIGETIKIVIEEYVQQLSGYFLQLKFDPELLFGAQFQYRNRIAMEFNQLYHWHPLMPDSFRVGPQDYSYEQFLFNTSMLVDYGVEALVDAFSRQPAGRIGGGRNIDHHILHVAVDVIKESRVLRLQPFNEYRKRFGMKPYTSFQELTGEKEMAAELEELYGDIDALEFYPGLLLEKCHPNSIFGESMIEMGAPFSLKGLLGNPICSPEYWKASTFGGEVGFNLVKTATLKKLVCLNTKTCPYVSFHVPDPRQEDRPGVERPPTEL
Method: Ram seminal vesicle microsomes (Biochemistry, 1971, 10, 2372) are incubated with arachidonic acid (100 μM: 1 min.: 22°) to produce PGH2 and aliquots of the reaction mixture injected into a stream of Krebs-bicarbonate at 37° C. (containing a mixture of antagonists (Nature, […], 218, 1135) and indomethacin (Brit. J. Pharmacol., 1972, 45, 451) which is superfusing a spirally-cut rabbit aorta strip (Nature, 1969, 223, 29). The ability of a compound to inhibit the enzyme is measured by comparing the increases in isometric tension produced by PGH2 in the absence of the test compound, and following pre-incubation of the enzyme with the test compound for 5 minutes.
as §1

prostacyclin synthetase [5] = target: T1, prostacyclin synthetase; test: Prostacyclin (PGI2) synthetase inhibition (pig aorta microsomes, rabbit aorta bioassay); type: biochemical; settings: 5 min pre-incubation, isometric tension of rabbit aorta, read-out: Molar concentration causing 50% inhibition of (3) prostacyclin synthetase
Method: 2. Prostacyclin (PGI2) Synthetase
Pig aorta microsomes (Nature, 1976, 263, 663) are incubated (30 sec.: 22° C.) with PGH2 produced as in 1) and aliquots bio-assayed as in 1. […] The test compound is then pre-incubated with the enzyme for 5 minutes, and its ability to prevent the decrease in tension is measured.
as §1

aggregation of platelets = settings: rats, abdominal aorta, in vivo; cited from earlier work

Compound | IC50 (thromboxane synthetase) [nM] | IC50 (cyclo-oxygenase) [nM] | other results
15-hydroperoxy-arachidonic acid | – | – | prevention of the decrease in PGH2-induced tension (PGI2 synthetase inhibition, in words) (prostacyclin synthetase [1]): prevented completely
CC(=O)Oc1ccccc1C(=O)O [Aspirin] | – | – | inhibitory activity in vitro against a variety of aggregating agents [2]: show inhibitory activity in vitro against a variety of aggregating agents; protection from the lethal effect of intravenous arachidonic acid [3]: protect the rabbit from the lethal effect of the injection; inhibition of the cyclo-oxygenase enzyme (in words) (cyclo-oxygenase enzyme): inhibit the cyclo-oxygenase enzyme; effect on prostacyclin and thromboxane A2 levels (in words) [4]: reduce both the prostacyclin and thromboxane A2 levels
O=C1C(CC[S+]([O-])c2ccccc2)C(=O)N(c2ccccc2)N1c1ccccc1 (stereo not drawn) [sulphinpyrazone] | – | – | inhibitory activity in vitro against a variety of aggregating agents [2]: show inhibitory activity in vitro against a variety of aggregating agents; protection from the lethal effect of intravenous arachidonic acid [3]: protect the rabbit from the lethal effect of the injection; prevention of the aggregation of platelets in an extra corporeal loop (aggregation of platelets): prevent the aggregation of platelets

The next lines start with results.

IC50 (thromboxane synthetase) [nM] | IC50 (cyclo-oxygenase) [nM] | Compound | other results
8.2 | > 100000 | Cc1ccc(OCC(=O)O)c(Cn2ccnc2)c1 [Example 2, 2-(1-Imidazolylmethyl)-4-methyl-phenoxyacetic acid hydrochloride hemihydrate] | IC50 (prostacyclin synthetase [5]): > 100000 nM
2.4 | > 100000 | Cc1ccc(OCCCC(N)=O)c(Cn2ccnc2)c1 [Example 4, 4-[2-(1-Imidazolylmethyl)-4-methyl-phenoxy]butyramide] | –
47 | > 100000 | Cc1ccc(OCc2ccc(C(=O)O)cc2)c(Cn2ccnc2)c1 [Example 5, 4-[2-(1-Imidazolylmethyl)-4-methyl-phenoxymethyl]benzoic acid] | –
46 | > 100000 | NC(=O)COc1ccc(Cn2ccnc2)cc1 [Example 8, 4-(1-Imidazolylmethyl)phenoxyacetamide] | –
4.5 | – | O=C(O)COc1cccc(Cn2ccnc2)c1 [Example 24, 3-(1-Imidazolylmethyl)phenoxyacetic acid hydrochloride] | –
